Experimental data as given in patent publication US10620215B2, “Real-time imaging sensor for measuring cellular thiol level” (CELL2IN, INC., priority 2014, dated 2020).
One block for each compound: values may come before it.

How the values were obtained:
[1] = Chemical equilibrium constant (Kd) of the tracer with β-mercaptoethanol, from fluorescence emission after equilibration; type: binding
Procedure: (§1) A buffer (10 mM phosphate, 150 mM NaCl, pH 7.4, H2O:DMSO=98:2) containing a mixture of a thiol compound (0-200 mM) and a FreSH-tracer (10 μM) was prepared, and the time-dependent UV-Vis absorption spectrum and fluorescence emission spectrum of the buffer were measured with S-3100 spectrophotometer and Hitachi F-7000 spectrophotometer. For preparation of buffers for use in in vitro experiments at pHs of pH 4, 5, 9 and 10, acetate and CHES (2-(cyclohexylamino)ethanesulfonate) were used instead of phosphate.
(§2) After a chemical equilibrium between the thiol compound (0-200 mM) and the FreSH-tracer was formed by an in vitro reaction, the emission spectrum of fluorescence emitted upon excitation with light at a wavelength of 430 nm was measured. The relationship between the fluorescence intensity at the maximum emission wavelength (580 nm) and the concentration of the thiol compound was analyzed by non-linear regression to determine the chemical equilibrium constant (Kd) between the thiol compound and the FreSH-tracer.

RAW264.7 = assay: Level of thiols in RAW264.7 macrophages after NADPH oxidase activation, by FreSH-tracer F510/F580 ratio; type: cell-based; settings: PMA treatment for 10-20 minutes; returned to basal level after 40-50 minutes
Procedure: (§3) HeLa and RAW264.7 cells were cultured in DMEM (containing 10% heat-inactivated FBS (Hyclone), 100 U/ml of penicillin, 100 μg/ml of streptomycin sulfate and 2 mM glutamine and free of phenol red). HeLa (1.8×10^5 cells/dish) and RAW264.7 (2×10^5 cells/dish) were seeded in 35 mm cover glass bottom dishes (SPL Life Sciences), and then cultured under the conditions of 37° C. and 5% CO2 for the indicated time. Before observation using a fluorescence microscope, the HeLa cells were incubated with 2 mL of a medium containing 5 μM of the FreSH-tracer HeLa for 2 hours, and the RAW264.7 cells were incubated for 4 hours. Real-time images of the cells were acquired using a Nikon A1 laser scanning confocal microscope. The imaging test was 2 performed while the cells were incubated under the conditions of 37° C. and 5% CO2 in a chamber mounted in a Nikon ECLIPSE Ti inverted microscope equipped with CFI Plan apochromat 60× and 1.40 numerical aperture (NA) objective lenses. The FreSH-tracer was excited with laser beams at 403 nm and 488 nm, and the fluorescence of the tracer was detected through filters with 500-550 nm and 570-620 nm band intervals. Using NIS-Elements AR software, the experimental data were analyzed and the ratio of fluorescence was imaged.
ROS that are generated by phagocytic NADPH oxidase (Phox) activity are essential defense substances that kill invasive microorganisms. […]

[2] = Chemical equilibrium constant (Kd) and fluorescence ratio response of the tracer with glutathione (GSH) in vitro; type: binding; settings: equilibration with GSH
Procedure: as §1, §2

HeLa cells = assay: Level of thiols / reduced GSH in living HeLa cells, by FreSH-tracer fluorescence intensity ratio; type: cell-based; settings: treatment with GSH-related enzyme inhibitor
Procedure: as §3, with “imaged. […]” for “imaged.”

SMILES: CN(C)C(=O)C(C#N)=Cc1cc2cc3c4c(c2oc1=O)CCCN4CCC3 [formula 2]
Kd [1]: 12 ± 1 mM

SMILES: CCOC(=O)CNC(=O)C(C#N)=Cc1cc2cc3c4c(c2oc1=O)CCCN4CCC3 [formula 3]
Kd [1]: 14 ± 1 mM

SMILES: CCCCCCCCCCCCCC(=O)O[C@@H]1[C@@H](C)[C@@]2(O)[C@@H](C=C(CO)C[C@]3(O)C(=O)C(C)=C[C@@H]23)[C@@H]2C(C)(C)[C@]12OC(C)=O [PMA, phorbol 12-myristate 13-acetate]
level of thiols in the cells (RAW264.7): reduced

SMILES: CCCCS(=N)(=O)CCC(N)C(=O)O (centres unmarked) [BSO, buthionine sulphoximine]
fluorescence intensity ratio of the sensor (level of reduced GSH) in HeLa cells (HeLa cells): reduced

The remaining lines, values ahead:

Kd [1]: 2.2 ± 0.1 mM
SMILES: CCN(CC)c1ccc2cc(C=C(C#N)C(=O)N(C)C)c(=O)oc2c1 [formula 8]

Kd [2]: 3.7 ± 0.2 mM
SMILES: CC(=O)OCOC(=O)CC[C@H](NC(=O)C1CCN(C(=O)C(C#N)=Cc2cc3cc4c5c(c3oc2=O)CCCN5CCC4)CC1)C(=O)OCOC(C)=O [formula 7]

Kd [2]: 2.8 ± 0.4 mM
SMILES: CC(=O)OCOC(=O)C1CCN(C(=O)C(C#N)=Cc2cc3cc4c5c(c3oc2=O)CCCN5CCC4)CC1 [formula 4]

Kd [1]: 2.2 ± 0.1 mM
SMILES: N#CC(=Cc1cc2cc3c4c(c2oc1=O)CCCN4CCC3)C(=O)N1CCC(C(=O)NCC[P+](c2ccccc2)(c2ccccc2)c2ccccc2)CC1 [formula 5]
